# Assays:
# UACC903 melanoma cells [1] = test: MTT cell viability assay, UACC903; type: cell-based, human; settings: for cell proliferation and viability (number of viable cells): single agent, seven days
# Description: (§6) MTT cell viability assays were performed as known in the art. C8161, UACC903, 1205Lu, SKMEL 187 and A2058 melanoma cell lines were used in the MTT assays. […] Viable cells were measured every day for 4 or 7 days. Absorbance was determined using a Tecan plate reader (Infinite 200 Tecan USA, Durham, N.C.) at 570 nm everyday for up to 7 days.
# [2] = system: SKMEL 28 human melanoma cells; test: MTT cell viability assay, SKMEL 28; type: cell-based; settings: single agent 10 μM, FIG. 5A
# Description: as §6
# [3] = system: C8161 human melanoma xenografts; test: C8161 xenografts in immunodeficient nude mice; type: in vivo; settings: riluzole 10 mg/kg
# Description: (§1) The Institutional Review Board approved all animal studies for the Animal Care and Facilities Committee of Rutgers University. Nude mice were purchased from Taconic (Hudson, N.Y.). Cells were injected into 2 dorsal sites of each mouse at 10^6 cells per site. Tumor size was measured twice a week with a Vernier caliper and calculated as described. Once tumor volumes reached 6-10 mm^3, mice were divided into no treatment and treatment groups. […] The experiments were terminated when the xenografts in the no treatment group reached the maximum permitted size.
# C8161 human melanoma cells were inoculated into the dorsal flanks of immunodeficient nude mice. 10^6 cells were inoculated into each dorsal flank of 5-6 week-old mice. When the tumors reached tumor volumes of ˜10 mm^3, the mice were randomly divided in 5 groups with similar tumor volumes. The mice were then treated by oral gavage daily, except for […] treatment, which was administered three times a week. […] Tumor volumes were determined once a week with a vernier caliper and the experiment was terminated when tumor burden in the control animals reached maximum permitted levels.
# [4] = system: C8161 human melanoma xenografts; test: Immunohistochemistry on excised C8161 xenografts (riluzole/MK2206 study); type: in vivo, mice; settings: riluzole 10 mg/kg; for cleaved Caspase-3-positive (apoptotic) cells: MK2206 30 mg/kg, or riluzole 5 mg/kg + MK2206 15 mg/kg, combination p<0.001 vs single agent
# Source text: (§2) Tissue Analytical Services at the Cancer Institute of New Jersey performed immunohistochemical staining on excised tumor xenografts to detect changes in the number of apoptotic and proliferating cells (activated Caspase 3 and Ki-67, respectively). The number of stained cells was quantified with a Digital Aperio ScanScopeGL system and ImageScope software (v 10.1.3.2028) (Aperio Technologies Inc., Vista, Calif.) according to the manufacturer's protocol.
# Excised tumor samples were subjected to immunohistochemistry evaluation with the apoptosis marker, cleaved Caspase-3, and the proliferation index marker, Ki-67.
# AKT phosphorylation = test: Western immunoblot, phosphorylated AKT; type: cell-based; settings: three human melanoma cell lines (C8161, UACC903, SKMEL 28)
# Description: (§3) Protein lysates were prepared as commonly known in the art. Briefly, media was removed and cells were washed once with ice-cold phosphate buffered saline (PBS). After removal of PBS, the extraction buffer was added directly to the plates and cells were collected with a cell scraper. Cells were incubated on ice for 20 minutes. Cell debris was removed by centrifugation at 25,000×g at 4° C. for 20 minutes and supernatant taken for Western immunoblot analysis. Western Blotting was carried out with anti-PARP, anti-cleaved PARP, anti-phospho ERK, anti-total ERK, anti-a-tubulin antibodies, anti AKT and anti-Phospho AKT-S473.
# C8161 melanoma cells = test: MTT cell viability assay, C8161; settings: for cell proliferation and viability (number of viable cells): single agent, seven days, FIG. 1A
# Description: as §6
# [5] = system: UACC903 human melanoma xenografts; test: UACC903 xenografts in immunodeficient nude mice; type: in vivo
# Description: as §1
# (§4) Briefly, UACC903 cells were injected into the dorsal flanks of nude mice. Tumors were allowed to grow to approximately 6-10 mm^3 and mice were divided into groups to obtain relatively constant tumor volumes between each group (12 mice per group).
# ERK phosphorylation = test: Western immunoblot, ERK phosphorylation; type: cell-based, human; settings: C8161, UACC903 and 1205Lu cells; harvested xenografts showed similar results
# Description: as §3
# Mcl-1 = test: Western immunoblot, Mcl-1 levels; type: cell-based, human; settings: C8161, UACC903 and 1205Lu cells
# 1205Lu melanoma cells [6] = test: MTT cell viability assay, 1205Lu; type: cell-based, human; settings: for cell proliferation and viability (number of viable cells): single agent, seven days, FIG. 1C
# Description: as §6
# SKMEL 187 melanoma cells = test: MTT cell viability assay, SKMEL 187; type: cell-based, human; settings: riluzole 25 μM or 50 μM vs no treatment or vehicle (DMSO)
# Description: as §6
# A2058 melanoma cells [7] = test: MTT cell viability assay, A2058; type: cell-based, human; settings: riluzole 25 μM or 50 μM vs no treatment or vehicle (DMSO)
# Description: as §6
# UACC903 melanoma cells [8] = test: Cell cycle analysis (propidium iodide flow cytometry), UACC903; type: cell-based, human; settings: riluzole 10 μM, 24 hours post-treatment
# Description: as §6
# 1205Lu melanoma cells [9] = test: Cell cycle analysis (propidium iodide flow cytometry), 1205Lu; type: cell-based, human; settings: riluzole 10 μM, 24 hours post-treatment
# Description: as §6
# A2058 melanoma cells [10] = test: Cell cycle analysis (propidium iodide flow cytometry), A2058; type: cell-based, human; settings: riluzole 10 μM, 24 hours post-treatment
# Description: as §6
# [11] = system: C8161 human melanoma cell line; test: Three dimensional anchorage independent colony assay, C8161; type: cell-based; settings: riluzole 10 μM, sorafenib 5 μM or both; 14 days; FIG. 2
# Description: (§5) The cells were suspended in 0.35% agar in RPMI supplemented with 10% FBS and plated on a layer of 0.75% agar in the same medium in 12-well culture plates (1−1.5×10^4 cells/well). […] Every other day, the vehicle, or drug(s) was again added with 250 μl of complete medium. After 14 days, the colonies were stained with iodonitrotetrazolium chloride (Sigma) and photographed. The numbers of colonies were counted using Image J software. Quantitation was performed by comparing the total number of colonies from three representative photomicrographs from each experiment. The histograms represent the average of three independent experiments.
# [12] = system: UACC903 human melanoma cell line; test: Three dimensional anchorage independent colony assay, UACC903; type: cell-based; settings: riluzole 10 μM, sorafenib 5 μM or both; 14 days; FIG. 2
# Description: as §5
# [13] = system: 1205Lu human melanoma cell line; test: Three dimensional anchorage independent colony assay, 1205Lu; type: cell-based; settings: riluzole 10 μM, sorafenib 5 μM or both; 14 days; FIG. 2
# Description: as §5
# [14] = system: SKMEL2 human melanoma cell line; test: Three dimensional anchorage independent colony assay, SKMEL2; type: cell-based; settings: riluzole 10 μM, sorafenib 5 μM or both; 14 days; vs control group; FIG. 2
# Description: as §5
# excised tumor xenografts = test: Immunohistochemistry on excised xenografts (riluzole/sorafenib study); type: in vivo, mice; settings: for number of Ki-67 positive cells: Ki-67 immunohistochemistry; for number of positive Caspase 3 cells vs controls: cleaved Caspase 3 immunohistochemistry
# Source text: as §2
# Additionally, immunohistochemical analyses were performed on excised xenografts using antibodies against the cleaved form of Caspase 3 to detect apoptotic cell death, and Ki-67 to detect changes in cell proliferation.
# cleaved form of PARP = test: Western analysis, cleaved PARP; type: cell-based, human; settings: riluzole 10 μM; UACC903, 1205Lu, A2058 cells; 24 and 48 hours
# Description: as §3, §4
# advanced melanoma = settings: cited from earlier work
# melanoma = settings: Phase II; cited from earlier work
# [15] = system: 1205Lu human melanoma xenografts; test: 1205Lu xenografts in immunodeficient nude mice; type: in vivo; settings: riluzole 10 mg/kg, sorafenib 24 mg/kg, or riluzole 5 mg/kg + sorafenib 12 mg/kg daily oral gavage; FIG. 3C
# Description: as §1
# [16] = riluzole 25 μM or 50 μM vs no treatment or vehicle (DMSO)
SMILES,cleaved Caspase-3-positive (apoptotic) cells [4],AKT phosphorylation (AKT phosphorylation),ERK phosphorylation (ERK phosphorylation),Mcl-1 levels (Mcl-1),cell proliferation and viability (number of viable cells) (UACC903 melanoma cells [1]; FIG. 1B),cell proliferation and viability (number of viable cells) (1205Lu melanoma cells [6]),decrease in colony formation [11],reduction in the number of colonies [12],reduction in colony formation [13] [%],decrease in colony formation [14],number of Ki-67 positive cells (excised tumor xenografts),number of positive Caspase 3 cells vs controls (excised tumor xenografts),cell proliferation and viability (number of viable cells) (C8161 melanoma cells),other results
NC1(c2ccc(-c3nc4ccn5c(=O)[nH]nc5c4cc3-c3ccccc3)cc2)CCC1 [MK2206],significant increase in apoptotic cells,suppress AKT phosphorylation,,,,,,,,,,,,"cell proliferation (UACC903 melanoma cells [1]; single agent 10 μM, FIG. 5A): suppress cell proliferation; cell proliferation [2]: suppress cell proliferation; tumor volume / xenograft growth ([3]; MK2206 30 mg/kg, or riluzole 5 mg/kg + MK2206 15 mg/kg, oral gavage, FIG. 6, combination p<0.005 vs NT or vehicle): suppress the growth of the melanoma xenografts; number of Ki-67 positive cells ([4]; MK2206 30 mg/kg, or combination at half the dose of each (p<0.001)): decrease in the number of Ki-67 positive cells; cell proliferation (C8161 melanoma cells; single agent 10 μM, FIG. 5A): suppress cell proliferation"
CCCS(=O)(=O)Nc1ccc(F)c(C(=O)c2c[nH]c3ncc(Cl)cc23)c1F [PLX4720],,,only found to suppress ERK activity in the B-RAF^V600E cell line UACC903,does not down regulate the levels of Mcl-1,,,,,,,,,,"IC50 (UACC903 melanoma cells [1]; Homo sapiens, UACC-903, UACC903 cells, MTT, FIG. 1B): 100 nM; tumor progression ([5]; riluzole 10 mg/kg, PLX4720 20 mg/kg, or riluzole 5 mg/kg + PLX4720 10 mg/kg, FIG. 3D): not as potent as riluzole; inhibition in cell proliferation (C8161 melanoma cells; PLX4720 10 uM): only slight inhibition in cell proliferation"
Nc1nc2ccc(OC(F)(F)F)cc2s1 [riluzole],significant increase in apoptotic cells,suppress AKT phosphorylation,decrease in levels of ERK phosphorylation in a cell line-dependent manner,,not as sensitive to riluzole,not as sensitive to riluzole,40%,very little inhibitory activity,30,18%,reduced,substantial increase in the number of positive Caspase 3 cells,greatest reduction in the number of viable cells,"number of viable cells (UACC903 melanoma cells [1]; [16]): significantly decreased the number of viable cells; number of viable cells (1205Lu melanoma cells [6]; [16]): significantly decreased the number of viable cells; number of viable cells (SKMEL 187 melanoma cells): significantly decreased the number of viable cells; number of viable cells (A2058 melanoma cells [7]): significantly decreased the number of viable cells; cells accumulating in the G2/M phase (UACC903 melanoma cells [8]): about half; cells accumulating in the G2/M phase (1205Lu melanoma cells [9]): about half; cells accumulating in the G2/M phase (A2058 melanoma cells [10]): about half; tumor size vs controls ([5]; single agent riluzole daily by oral gavage, day 18, 12 mice per group): substantial difference between the tumor sizes; cleaved form of PARP (cleaved form of PARP): increase in the cleaved form of PARP; patients showing measurable clinical responses (advanced melanoma; Phase 0, patients with advanced melanoma given riluzole): 34%; decrease in tumor size (advanced melanoma; Phase 0, some tumors): over 90%; RECIST criteria responses (melanoma): no RECIST criteria responses; patients exhibiting stable disease (melanoma): 42%; number of viable cells (C8161 melanoma cells; [16]): significantly decreased the number of viable cells"
CNC(=O)c1cc(Oc2ccc(NC(=O)Nc3ccc(Cl)c(C(F)(F)F)c3)cc2)ccn1 [sorafenib],,,more highly suppress ERK phosphorylation in UACC903 and 1205Lu cells than in C8161 cells,reduction in Mcl-1 levels was detected in sorafenib-treated UACC903 and 1205 LU cells,substantial decrease in the number of viable cells,substantial decrease in the number of viable cells,little effect,45%,30,more efficacious at decreasing colony formation,reduced,substantial increase in the number of positive Caspase 3 cells,not very effective in suppressing C8161 cell growth,"tumor volume ([3]; sorafenib 24 mg/kg, or riluzole 5 mg/kg + sorafenib 12 mg/kg daily oral gavage, FIG. 3A, p<0.001 for riluzole and combination vs NT or Veh): did not yield a significant decrease in tumor size; tumor volume ([5]; riluzole 10 mg/kg, sorafenib 24 mg/kg, or riluzole 5 mg/kg + sorafenib 12 mg/kg daily oral gavage, FIG. 3B, p<0.01 single agents day 18, p<0.001 combination): statistically relevant responses; tumor volume response compared to UACC903 xenografts [15]: more sensitive"

# Source: US20130116274A1 (RUTGERS, THE STATE UNIVERSITY OF NEW JERSEY, priority 2011, published 2013)
